# Tests used:
# [1] = Pilot study: oral daily Kneller's Trione in men, plasma sex hormone profile; format: in vivo, human; conditions: for change of testosterone-to-estradiol ratio: 14 days, ending vs starting ratio; for TOTAL TESTOSTERONE / ESTRADIOL / DHT: person
# Procedure: The first study subject was a person who was dosed once per day orally with 25 mg per day of Kneller's Trione.
# The second study subject was a person who was dosed once per day orally with 50 mg per day of Kneller's Trione.
# The third study subject was a person who was dosed once per day orally with 100 mg per day of Kneller's Trione.
# [2] = Pilot study: adverse events and safety observations in study subjects; format: in vivo, human
smiles,measurement,setting,value
"C[C@]12CCC(=O)C[C@@H]1C(=O)C[C@@H]1[C@@H]2CC[C@]2(C)C(=O)CC[C@@H]12 [Kneller's Trione, 5α-androstane-3,6,17-trione]",change of testosterone-to-estradiol ratio,[1]; 25 mg daily oral,130%
same,change of testosterone-to-estradiol ratio,[1]; 50 mg daily oral,28%
same,effect on bioavailable testosterone level,[1]; 250 mg per day oral,raised
same,effect on total testosterone level,[1]; 250 mg per day oral,raised
same,effect on bioavailable testosterone level,[1]; 500 mg per day oral,raised
same,effect on total testosterone level,[1]; 500 mg per day oral,raised
same,added benefits with high dosage,[1]; 750 mg per day oral,no added benefits were seen
same,changes in plasma estradiol levels in men,[1]; general statement,no changes outside the accepted normal limits
same,effect on plasma testosterone levels in men,[1]; general statement,substantial and significant increases
same,increase of plasma free testosterone levels,[1]; oral administration,more than 100%
same,TOTAL TESTOSTERONE,"[1]; 25 mg per day oral, single dose, DAY 7 (baseline 6,290 pg/mL)","6,400 pg/mL"
same,ESTRADIOL,"[1]; 25 mg per day oral, DAY 7 (baseline 47 pg/mL)",28 pg/mL
same,DHT,"[1]; 25 mg per day oral, DAY 7 (baseline 42 ng/dL)",36 ng/dL
same,ESTRADIOL,"[1]; 25 mg per day oral, DAY 14 (baseline 47 pg/mL)",23 pg/mL
same,DHT,"[1]; 25 mg per day oral, DAY 14 (baseline 42 ng/dL)",49 ng/dL
same,TOTAL TESTOSTERONE,"[1]; 50 mg per day oral, single dose, DAY 7 (baseline 8,570 pg/mL)","11,000 pg/mL"
same,ESTRADIOL,"[1]; 50 mg per day oral, DAY 7 (baseline 36 pg/mL)",35 pg/mL
same,DHT,"[1]; 50 mg per day oral, DAY 7 (baseline 47 ng/dL)",46 ng/dL
same,ESTRADIOL,"[1]; 50 mg per day oral, DAY 14 (baseline 36 pg/mL)",36 pg/mL
same,TOTAL TESTOSTERONE,"[1]; 50 mg per day oral, DAY 14 (baseline 8,570 pg/mL)","11,000 pg/mL"
same,DHT,"[1]; 50 mg per day oral, DAY 14 (baseline 47 ng/dL)",49 ng/dL
same,ESTRADIOL,"[1]; 100 mg per day oral, DAY 7 (baseline 46 pg/mL)",44 pg/mL
same,DHT,"[1]; 100 mg per day oral, DAY 7 (baseline 35 ng/dL)",48 ng/dL
same,ESTRADIOL,"[1]; 100 mg per day oral, DAY 14 (baseline 46 pg/mL)",34 pg/mL
same,DHT,"[1]; 100 mg per day oral, DAY 14 (baseline 35 ng/dL)",41 ng/dL
same,adverse event causing the subject to withdraw,[2]; 750 mg per day oral,priaprism
same,other adverse events noted by any study subject,[2]; oral daily dosages 25 mg to 750 mg,No other adverse events

# Source: US20110034429A1, “5a-ANDROSTANE-3,6,17-TRIONE (KNELLER'S TRIONE) AND METHODS OF USE THEREFOR” (priority 2009, published 2011)
